Counter-ions that a name gives are not always drawn.
Assays:
isolated rat brain stem [1] = details: optimal concentration for the specific enhancer effect, 3-min collection period; review Knoll, 2005; cited from earlier work
lung carcinoma = assay: Longevity study on FVB/N mice: spontaneous lung carcinoma at autopsy; format: in vivo, mouse; details: 18-month
Procedure: Body weight is measured bimonthly.
For monitoring, we planned to sacrifice mice from each group at 6-month, 1-year, 1.5-year and 2-year time-points; the rest of the animals are kept until spontaneous death.
The results are shown in Table 4 and on FIGS. 19 and 20. Significance levels were calculated with two-sided Chi-square test.

[2] = test system: catecholaminergic neurons; assay: Shuttle box: antagonism of tetrabenazine-induced learning deficit (conditioned avoidance reflex); format: in vivo, rat
Procedure: In a modified version of the shuttle box the acquisition of a two-way conditioned avoidance reflex (CAR) was analyzed during 5 consecutive days. The rat was put in a box divided inside into two parts by a barrier with a small gate in the middle, and the animal was trained to cross the barrier under the influence of a conditioned stimulus (CS, light flash). […] One trial consisted of 10 s intertrial interval, followed by 20 s CS. The last 5 s of CS overlaped the 5 s US. At each learning session, the number of CARs, EFs and intersignal reactions (IRs) are automatically counted and evaluated by multi-way ANOVA.
Tetrabenazine-treatment (1 mg/kg s.c.) depletes at least 90% of norepinephrine and dopamine from their stores in the nerve terminals of the catecholaminergic neurons in the brain stem. Due to the weak performance of the catecholaminergic brain engine, the activation of the cortical neurons remains below the level required for the acquisition of a CAR. The learning deficit caused by tetrabenazine-treatment can be antagonized by the administration of a synthetic CAE substance or an A-type MAO inhibitor, whereas selective inhibition of B-type MAO or inhibition of the reuptake of catecholamines and/or serotonin is ineffective (Knoll et al., 1992).

[3] = test system: male Wistar rats (Charles River); assay: Longevity study: survival of rats treated 3 times a week s.c.; format: in vivo, rat
Procedure: Experiments were carried out on male Wistar rats (Charles River) weighing 250-350 g received from the breeding colony of Semmelweis University. The animals were kept in a 12-hour light-dark cycle and under condition of controlled temperature (22±2° C.) and relative humidity (55±5%). Room temperature and relative humidity was checked daily. The rats were maintained on standard laboratory chow and tap water ad libitum. All procedures conformed to the European Convention for the protection of vertebrate animals used for experimental and other scientific purposes. The study was approved by the Animal Ethics Committee of Semmelweis University, Budapest (permission number: 1810/003/2004)
(§1) The longevity study was performed on 200 male rats received from the breeding colony of the Semmelweis University. The rats were born at the end of February of 2010. After 2-month acclimation period the rats were divided randomly into 5 even groups. The longevity study started at the beginning of May 2010. Animals were observed until their natural deaths. The data in this study represent the changes observed until Oct. 31, 2012, since in the saline-treated group the last animal died on Oct. 31, 2012. As will be shown later a few rats in the enhancer-treated groups were still alive on Nov. 1, 2012.
(§2) During the longevity study 5 rats were housed together in polycarbonate cages (height: 18 cm; wide: 42 cm; length: 44 cm) with a stainless steel on the top. Cage bedding was renewed 3 times a week (Monday, Wednesday and Friday). Bodyweight was measured once every month. The treatment started at the end of the second month of their age.
To avoid the mixing of the groups and individuals, saline-treated rats were signed blue from 1 to 40; D-treated rats were signed green from 1 to 80 (1-40: rats treated with 0.1 mg/kg and 41-80: rats treated with 0.001 mg/kg); B-treated rats were signed black from 1 to 80 (1-40: rats treated with 0.05 mg/kg and 41-80: rats treated with 0.0001 mg/kg).
(§3) Significance in the performance between the groups in the shuttle box was evaluated by multi-factor analysis of variance (ANOVA). Significance regarding the span of time from tumor manifestation until death in rats and regarding aging related changes in bodyweight treated chronically with the enhancer substances was analyzed by One-way ANOVA. Statistical analysis of survival rate and tumor manifestation was performed by the Kaplan-Meier method.

UW-228-2 cell line = assay: MTT proliferation assay, UW-228-2 medulloblastoma cells; format: cell-based, human; details: UW-228-2, monotherapy, nine concentrations 10^-14 to 10^-6 M, 72 hours
Procedure: (§4) Human medulloblastoma cell line, Daoy was purchased from ATCCC, UW-228 was obtained from the courtesy of Professor Silber (Univerity of Washington, Seattle, Wash., USA).
(§5) Daoy and UW-228-2 cell lines were maintained in culture medium (each 500 ml Minimum Essential Medium Eagle, Alpha Modification (M8042, Sigma, St Louis, USA) with 50 ml FCS (Gibco), 40 mg Gentamicin (Sandoz), 5 ml sodium-pyruvate (S8636, Sigma, St Louis, USA), 5 ml non-essential-amino acid solution (M7145, Sigma, St Louis, USA), 10 ml L-glutamin (Sigma, St Louis, USA) at 37° C. in humified 5% CO2.
(§6) In each well 3×10^3 Daoy or UW-228-2 cells were seeded in 96-well plates (Sarstedt), solved in 100 μl of its own medium with 10% FCS. 24 hours after seeding, cells were treated for 72 hours by drugs solved in further 100 μl medium. First, both cell lines were treated by (−)-BPAP and (−)-deprenil in monotherapy to determine its dose-effect curves in concentration of 10^−6, 10^−7, 10^−8, 10^−9, […], 10^−11, 10^−12, 10^−13 and 10^−14 M. In combined treatment 10^−3, 3.3×10^−4, […] and 3.7×10^−5 M of temozolomide (Schering Plough, USA) or 0.04, 0.2, 1, 5 μM of Cisplatin (Ebewe Pharma, Austria) or 0.04, 0.2, 1, 5 μM of etoposide (Ebewe Pharma, Austria) or 10^−7, 10^−6, 10^−5 and 10^−4 μM (UW228-2) or 0.001, 0.005, 0.025 and 0.125 μM (Daoy) of Vincristin (Richter Gedeon, Hungary) were applied in monotherapy or combined with 10^−13 or 10^−8 M of (−)-BPAP or (−)-deprenil.
(§7) Cell proliferation was evaluated by MTT (3-(4,5-Dimethylthiazol-2-yl)-2,5-diphenyltetrazolium bromide) assay (M5655, Sigma) after 72-hour treatment by the method described in manufacturer's protocol.

[4] = test system: Wistar-Logan strain of rats; details: cited from earlier work
Daoy HTB-186 cell line = assay: MTT proliferation assay, Daoy medulloblastoma cells; format: cell-based, human; details: monotherapy, nine concentrations 10^-14 to 10^-6 M, 72 hours
Procedure: as §4, §5, §6, §7

fibromyxosarcoma = assay: Longevity study: manifestation of subcutaneous fibromyxosarcoma (TMS effect); format: in vivo, rat; details: for tumor manifestation suppressing (TMS) effect versus saline: Kaplan-Meier
Procedure: as §1, §2
We carefully observed the appearance of the subcutaneous tumor and followed the development of the tumor until death. Histological analysis was performed post mortem on several rats taken from each group as examples.
The subcutaneous tumors developed in the rats were measured by the two largest diameters. After sacrificing the animals, the tumors were removed, photographs were taken. Tissues were fixed immediately after removal in 10% neutral formalin (in PBS, pH7.0) for 24 hours at room temperature, dehydrated and embedded in paraffin. 3-4 micrometer thick sections were cut and stained by hematoxylin and eosin (HE) as a routine.
as §3

[5] = test system: catecholaminergic neurons in the brain stem; details: 1 mg/kg s.c.; cited from earlier work
isolated rat brain stem [6] = assay: Release of labelled transmitter from isolated rat brain stem to electrical stimulation
Excerpt: After a single washout the neurons work immediately on their normal activity level again. Since neurons respond to stimulation in an “all or none” manner, it is obvious that only a part of the neuronal population (the most excitable ones) respond to the electrical stimulation.
This measurement can be made, mutatis mutandis, analogously to the measurement described in example 2 of EP1052259B1 (corresponding to WO2000026204A1). The method is described in [Knoll J, Knoll B and Miklya I Life Sci, 58, 2101-2114 (1996)].
In short the brain stem (average weight about 800 mg) is isolated from rats and soaked in oxygenated Krebs' solution. Then solution of labelled neurotransmitter the release of which is measured is added to the preparation and allowed for uptake in an appropriate environment. If needed, MAO activity is inhibited.
After uptake of the monoamine the brain stem is fixed in appropriate organ bath and washed in appropriate solution facilitating uptake and preventing metabolization of the monoamine.
Fractionation of the perfusate is carried out periodically and, if the monoamine is radiolabelled, fractions are combined with a scintillation liquid.
The organ is perfused with the buffer containing the compound(s) of the invention for sufficient time before electrostimulation.
The brain stem is stimulated with rectangular pulses (e.g. 3 Hz, 1 ms 60 V) e.g. for 3 min. At the beginning of the experiment, the several, e.g. three resting periods of fraction were proceeded prior to the first stimulation. Thereafter it is allotted several, e.g. seven resting periods of fraction between stimulation.

[7] = shuttle box, 1 mg/kg tetrabenazine s.c.

C#CCN(C)[C@H](C)Cc1ccccc1 [(−)-Deprenyl, (R)—N-methyl-N-(1-phenylpropan-2-yl)prop-2-yn-1-amine, reference compound]
released amount of labeled transmitter ([3H]-norepinephrine, [3H]-dopamine or [3H]-serotonin) (isolated rat brain stem [1]): significantly higher
Number of detected lung carcinoma (lung carcinoma; 0.001 mg/kg daily, 2 dissected mice): 0
Number of detected lung carcinoma (lung carcinoma; 0.1 mg/kg daily, 4 dissected mice): 1
dose-effect-relation of the enhancer effect ([2]; shuttle box (FIG. 3)): bi-modal, bell-shaped
optimal dose that exerted the specific enhancer effect [2, 7]: 0.001 mg/kg
very high dose range effective in antagonizing the tetrabenazine-induced learning deficit (MAO-A inhibition) [2, 7]: 5 to 10 mg/kg
month of age in which the first animal died ([3]; 0.001 mg/kg s.c. 3 times a week, N=40): 13 month
rats remained alive to the end of the 32nd month ([3]; 0.001 mg/kg, N=40): none
month of age in which the first animal died ([3]; 0.1 mg/kg s.c. 3 times a week, N=40): 11 month
lifespan compared with saline-treated peers ([3]; both doses of the longevity study (FIGS. 5-8)): did not prolong the lifespan of rats significantly
proliferation of cultured medulloblastoma cells (UW-228-2 cell line; listed as (−)-deprenyl): did not inhibit the proliferation
proliferation of cultured medulloblastoma cells (UW-228-2 cell line; listed as Deprenyl): none of the applied concentrations did Deprenyl or BPAP influence the proliferation
rats that lived longer than the maximum lifespan ever observed in the strain ([4]; HP rats, out of 50): 17 rats
lifespan versus saline treated peers ([4]; sexually lowest performing (LP) rats, n=49): lived significantly longer than their saline treated peers
proliferation of cultured medulloblastoma cells (Daoy HTB-186 cell line; listed as (−)-deprenyl): did not inhibit the proliferation
proliferation of cultured medulloblastoma cells (Daoy HTB-186 cell line; listed as Deprenyl): none of the applied concentrations did Deprenyl or BPAP influence the proliferation
tumor manifestation suppressing (TMS) effect versus saline (fibromyxosarcoma; 0.001 mg/kg): not significant
month of age in which the first animal manifested the tumor (fibromyxosarcoma; 0.001 mg/kg, N=40): 12 month
rats in the group manifested the tumor to the end of the 32nd month (fibromyxosarcoma; 0.001 mg/kg, N=40): 15 rats
tumor manifestation suppressing (TMS) effect versus saline (fibromyxosarcoma; 0.1 mg/kg, P<0.01, listed as (−)-deprenyl): significantly decreased
tumor manifestation suppressing (TMS) effect versus saline (fibromyxosarcoma; 0.1 mg/kg, P<0.01, listed as Deprenyl): suppressed the manifestation of the fibromyxosarcoma significantly
month of age in which the first animal manifested the tumor (fibromyxosarcoma; 0.1 mg/kg, N=40): 16 month
rats in the group manifested the tumor to the end of the 32nd month (fibromyxosarcoma; 0.1 mg/kg, N=40): 11 rats
rats manifested the tumor when the group completed the 30th month of life (fibromyxosarcoma; 0.1 mg/kg, N=40): 11 rats
span of time from tumor manifestation until death (fibromyxosarcoma; chronic treatment, versus saline (FIG. 13), One-way ANOVA): no significant difference

COc1cc2c(cc1OC)C1CC(=O)C(CC(C)C)CN1CC2 (centres unmarked) [Tetrabenazine, Tetrabenazine HCl]
depletion of norepinephrine and dopamine from their stores in the nerve terminals [5]: at least 90%

C#CCN(C)CCCOc1ccc(Cl)cc1Cl [clorgyline]
release of [3H]-SER to electrical stimulation (isolated rat brain stem [6]; 250 ng/ml): None of these compounds enhanced the release

CNCCC(Oc1ccc(C(F)(F)F)cc1)c1ccccc1 (centres unmarked) [fluoxetine]
release of [3H]-SER to electrical stimulation (isolated rat brain stem [6]; 50 ng/ml): None of these compounds enhanced the release

NCCNC(=O)c1ccc(Cl)cn1 [lazabemide]
release of [3H]-SER to electrical stimulation (isolated rat brain stem [6]; 250 ng/ml): None of these compounds enhanced the release
